Reference: ChEMBL document CHEMBL3808275, “Design, synthesis and SARs of novel salicylanilides as potent inhibitors of RANKL-induced osteoclastogenesis and bone resorption” (Eur J Med Chem, 2016)
pIC50: −log10 of the molar value.

Tests used:
[1] = Cytotoxicity against mouse RAW264.7 cells assessed as survival rate at 2.5 uM after 24 hrs by MTT assay; type: cell-based; conditions: read-out: Survival
[2] = Cytotoxicity against mouse RAW264.7 cells assessed as reduction in cell viability after 24 hrs by MTT assay; type: cell-based
[3] = tested on: RAW264.7; test: Cytotoxicity against mouse RAW264.7 cells assessed as reduction in cell viability at 5 uM after 24 hrs by MTT assay; type: cell-based; conditions: raw264.7, 24 h
[4] = tested on: RAW264.7; test: Inhibition of RANKL-induced osteoclast differentiation in mouse RAW264.7 cells assessed as TRAP-positive multinucleated cells level at 2.5 uM incubated with compound in presence of RANKL for 4 days by TRAP staining based light microscopic analysis relative to RANKL alone; type: functional; parameters: scale not given: the % may be the effect or the level left
[5] = tested on: RAW264.7; test: Inhibition of RANKL-induced osteoclast differentiation in mouse RAW264.7 cells assessed as reduction in TRAP-positive multinucleated cells level incubated with compound in presence of RANKL for 4 days by TRAP staining based light microscopic analysis relative to RANKL alone; type: functional, cell-based; conditions: RAW264.7, 96 h

Compound | viability at 24 h, 2.5 µM [1] [%] | CC50 at 24 h [2] [µM] | Activity [3] | Activity [4] [%] | pIC50 [5]
O=C(Nc1ccc(Br)cc1F)c1cc(I)ccc1O | 104 | 8.4 | Toxic | 29.9 | –
O=C1c2cc(Cl)ccc2Oc2cc([N+](=O)[O-])ccc2N1c1ccc(Br)cc1F | 100 | > 40 | Toxic | 77.2 | –
O=C1c2cc(Br)ccc2Oc2cc([N+](=O)[O-])ccc2N1c1ccc(F)cc1F | 94 | > 40 | Toxic | 90.1 | –
O=c1oc2ccc(I)cc2c(=O)n1-c1ccc(F)cc1F | 97.5 | 15.7 | Toxic | 84.8 | –
O=C1c2ccccc2Oc2cc([N+](=O)[O-])ccc2N1c1ccc(I)cc1F | 87.2 | > 40 | Toxic | 88.6 | –
O=C(Nc1ccc(F)cc1F)c1cc(Br)ccc1O | 91.9 | 13.8 | Toxic | 95.2 | –
O=C(Nc1ccc(I)cc1F)c1cc(Cl)ccc1O | 108 | 7.6 | Toxic | 2.9 | 5.74
O=c1oc2ccc(Br)cc2c(=O)n1-c1ccc(I)cc1F | 96.8 | 7.9 | Toxic | 39 | –
O=C(Nc1ccc(Cl)cc1F)c1cc(Cl)ccc1O | 109 | 8 | Toxic | 15.8 | 5.67
O=C(Nc1ccc(I)cc1F)c1cc(Br)ccc1O | 99.6 | 6.4 | Toxic | 16 | 5.71
O=c1oc2ccc(Br)cc2c(=O)n1-c1ccc(F)cc1F | 107 | 16 | Toxic | 98.3 | –
O=C(O)c1cc(Br)ccc1O | 101 | > 40 | Toxic | 96.5 | –
O=C1c2cc(Cl)ccc2Oc2cc([N+](=O)[O-])ccc2N1c1ccc(Cl)cc1F | 100 | > 40 | Toxic | 59.4 | –
O=c1oc2ccc(I)cc2c(=O)n1-c1ccc(Br)cc1F | 109 | 8.3 | Toxic | 58.2 | –
O=c1oc2ccc(F)cc2c(=O)n1-c1ccc(F)cc1F | 103 | 19.9 | Toxic | 89.7 | –
O=C1c2cc(F)ccc2Oc2cc([N+](=O)[O-])ccc2N1c1ccc(I)cc1F | 95.3 | > 40 | Toxic | 85.3 | –
O=C(Nc1ccc(Br)cc1F)c1cc(F)ccc1O | 102 | 7.9 | Toxic | 8.7 | 5.73
O=c1oc2ccc(I)cc2c(=O)n1-c1ccc(I)cc1F | 107 | 7.6 | Toxic | 36.1 | –
O=C1c2cc(I)ccc2Oc2cc([N+](=O)[O-])ccc2N1c1ccc(F)cc1F | 98.2 | > 40 | Toxic | 85.4 | –
O=c1oc2ccc(F)cc2c(=O)n1-c1ccc(Cl)cc1F | 107 | 7.9 | Toxic | 29.8 | –
O=c1oc2ccc(Br)cc2c(=O)n1-c1ccc(Cl)cc1F | 82.1 | 7.5 | Toxic | 67.4 | –
O=C(Nc1ccc(Br)cc1F)c1cc(Cl)ccc1O | 106 | 7.8 | Toxic | 23.3 | 5.67
O=C1c2ccccc2Oc2cc([N+](=O)[O-])ccc2N1c1ccc(Cl)cc1F | 103 | > 40 | Toxic | 97.1 | –
O=C(Nc1ccc(F)cc1F)c1cc(Cl)ccc1O | 109 | 14.6 | Toxic | 93.3 | –
O=C(Nc1ccc(Cl)cc1F)c1cc(I)ccc1O | 94 | 8.5 | Toxic | 26.1 | –
O=C1c2cc(F)ccc2Oc2cc([N+](=O)[O-])ccc2N1c1ccc(Br)cc1F | 98.8 | > 40 | Toxic | 88.7 | –
